From ChEMBL document CHEMBL2074171, “Studies on intestinal absorption of sulpiride (1): carrier-mediated uptake of sulpiride in the human intestinal cell line Caco-2” (Biol Pharm Bull, 2002)
Peptide text beside a SMILES is read from it.

Legend:
[1] = molecular target: T1, Solute carrier family 15 member 1 (Homo sapiens) (UniProt P46059); test: TP_TRANSPORTER: inhibition of Sulpiride uptake (Surpiride: 100 uM, Gly-Sar: 1000 uM) in Caco-2 cells; format: functional, cell-based; design: scale not given: the % may be the effect or the level left
T1 sequence (whole entry): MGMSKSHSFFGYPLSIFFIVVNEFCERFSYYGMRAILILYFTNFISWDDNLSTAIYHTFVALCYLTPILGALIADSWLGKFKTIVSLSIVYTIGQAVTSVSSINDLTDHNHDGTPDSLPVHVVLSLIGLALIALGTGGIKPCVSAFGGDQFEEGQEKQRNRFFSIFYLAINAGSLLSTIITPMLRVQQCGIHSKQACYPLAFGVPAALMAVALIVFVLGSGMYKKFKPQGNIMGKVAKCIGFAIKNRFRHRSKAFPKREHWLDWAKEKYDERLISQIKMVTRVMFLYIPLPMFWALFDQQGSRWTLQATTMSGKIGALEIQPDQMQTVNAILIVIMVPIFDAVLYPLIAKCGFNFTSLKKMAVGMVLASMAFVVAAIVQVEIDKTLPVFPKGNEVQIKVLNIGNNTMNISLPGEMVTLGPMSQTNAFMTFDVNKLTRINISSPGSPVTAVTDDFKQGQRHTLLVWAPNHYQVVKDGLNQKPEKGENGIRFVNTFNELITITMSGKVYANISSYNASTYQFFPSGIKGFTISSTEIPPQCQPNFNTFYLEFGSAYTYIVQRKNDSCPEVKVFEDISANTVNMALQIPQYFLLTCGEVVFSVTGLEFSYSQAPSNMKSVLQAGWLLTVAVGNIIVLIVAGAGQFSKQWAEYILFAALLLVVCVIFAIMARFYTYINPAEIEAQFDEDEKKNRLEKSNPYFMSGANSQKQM

[2] = molecular target: T1, Solute carrier family 15 member 1 (Homo sapiens); test: TP_TRANSPORTER: trans-stimulation of Sulpiride uptake (Surpiride: 100 uM, Gly-Sar: 1000 uM) in Caco-2 cells; format: functional, cell-based

Activity [1]: 65%
Activity [2]: 135%
Compound: CN(CC(=O)O)C(=O)CN (HELM PEPTIDE1{G.[Sar]}$$$$V2.0)
